The record followed here is US20220242870A1, “HETEROCYCLE-FUSED PYRIMIDINE DERIVATIVE AND USE THEREOF” (VORONOI Inc., priority 2019, published 2022).

Assay [1] has as its system RS4;11 cells. Briefly: AML cell proliferation inhibitory activity (CellTiter-Glo). It counts as cell-based. Particulars: Homo sapiens, 72 hours. Summed up: (§1)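 RS4;11 and MV4-11 cells in RPMI-1640 with 10% FBS, seeded 24 h before treatment, then exposed 72 h to 12 three-fold dilutions (0.3 nM–50 μM final). Viability by CellTiter-Glo luminescence relative to solvent control; GI50 from triplicate experiments.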
Background: In ATP-based viability assays light output follows the ATP content of the culture.

Assay [2] relates to MV4-11 cells. Described as above. Conditions: Homo sapiens, 72 hours. In kind it is cell-based. Summed up:
as §1

The target of assay [3] is T1, human GST-HPK1 (1-346) (Homo sapiens, UniProt Q92918).
T1 construct: purified human GST-HPK1 (1-346, Signalchem) enzyme; purchased Signalchem
T1 sequence (Q92918 1-346): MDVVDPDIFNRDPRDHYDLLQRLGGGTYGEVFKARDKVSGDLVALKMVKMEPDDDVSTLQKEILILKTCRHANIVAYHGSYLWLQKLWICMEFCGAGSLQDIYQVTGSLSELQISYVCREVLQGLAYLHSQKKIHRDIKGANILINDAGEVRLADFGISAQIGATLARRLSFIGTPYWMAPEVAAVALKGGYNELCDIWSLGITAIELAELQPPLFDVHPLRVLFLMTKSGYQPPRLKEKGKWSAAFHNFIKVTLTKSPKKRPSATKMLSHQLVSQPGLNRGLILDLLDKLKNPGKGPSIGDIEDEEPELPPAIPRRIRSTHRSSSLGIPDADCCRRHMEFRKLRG
Briefly: HPK1 enzyme inhibitory ability (ADP-Glo kinase assay). It counts as biochemical. Conditions: human GST-HPK1 3 ng, ATP 3 uM, 25° C. 2 hours. Summed up:
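Human GST-HPK1(1-346), 3 ng, reacted with 3 uM ATP and specific substrate in 40 mM Tris-HCl pH 7.4, 20 mM MgCl2, 0.5 mg/mL BSA, 50 uM DTT for 2 h at 25° C. ADP-Glo luminescence read; IC50 (nM) relative to untreated solvent control.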

Assay [4] addresses T2, human FLT3-ITD enzyme (Homo sapiens, UniProt P36888).
T2 sequence (P36888 1-993): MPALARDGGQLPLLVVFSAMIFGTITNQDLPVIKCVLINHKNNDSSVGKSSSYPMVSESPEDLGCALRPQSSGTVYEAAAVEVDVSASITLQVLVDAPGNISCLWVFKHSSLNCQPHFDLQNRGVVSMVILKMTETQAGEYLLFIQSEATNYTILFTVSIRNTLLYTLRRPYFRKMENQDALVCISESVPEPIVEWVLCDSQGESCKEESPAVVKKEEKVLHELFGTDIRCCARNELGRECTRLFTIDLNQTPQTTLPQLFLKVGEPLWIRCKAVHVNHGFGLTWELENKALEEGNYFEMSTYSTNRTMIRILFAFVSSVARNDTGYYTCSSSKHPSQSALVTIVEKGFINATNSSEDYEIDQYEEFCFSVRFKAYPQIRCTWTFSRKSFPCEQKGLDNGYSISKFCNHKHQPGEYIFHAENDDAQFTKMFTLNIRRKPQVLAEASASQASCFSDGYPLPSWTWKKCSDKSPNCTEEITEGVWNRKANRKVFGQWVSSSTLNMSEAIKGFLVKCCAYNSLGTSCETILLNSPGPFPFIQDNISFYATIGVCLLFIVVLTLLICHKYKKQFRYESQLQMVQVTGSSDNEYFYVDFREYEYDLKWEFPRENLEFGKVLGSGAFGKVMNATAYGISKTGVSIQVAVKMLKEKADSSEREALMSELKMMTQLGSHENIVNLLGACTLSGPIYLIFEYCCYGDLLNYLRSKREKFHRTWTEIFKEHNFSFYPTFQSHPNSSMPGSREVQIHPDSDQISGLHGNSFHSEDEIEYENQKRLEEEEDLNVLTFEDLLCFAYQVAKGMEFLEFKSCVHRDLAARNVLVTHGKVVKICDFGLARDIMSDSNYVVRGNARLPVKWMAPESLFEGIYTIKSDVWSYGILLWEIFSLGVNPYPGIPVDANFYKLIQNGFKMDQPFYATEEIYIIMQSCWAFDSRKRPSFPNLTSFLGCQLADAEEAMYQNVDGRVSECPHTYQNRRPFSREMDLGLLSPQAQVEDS
Kind of assay: FLT3 enzyme inhibitory ability (ADP-Glo kinase assay). Particulars: human FLT3-ITD enzyme 10 ng, ATP 10 μM, 25° C. 1 hour. In kind it is biochemical. Summed up: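 Purified human FLT3-ITD (10 ng) with 10 μM ATP and specific substrate in 40 mM Tris-HCl pH 7.4, 20 mM MgCl2, 0.5 mg/mL BSA, 50 μM DTT, 1 h at 25 °C. ADP formation read by ADP-Glo luminescence; IC50 (nM) versus solvent-treated control.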
(ADP-Glo turns the ADP formed in a reaction into a luminescent signal.)

Assay [5] relates to MCF-7 cells. Kind of assay: Breast cancer cell line proliferation inhibitory activity (CellTiter-Glo 2.0). In kind it is cell-based. Conditions: Homo sapiens, MCF7, 120 hours. The procedure, abridged:
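MCF-7 cells exposed to a 12-point, 3-fold dilution series (final 0.00005–10 μM) for 120 h at 37 °C. Viability read by CellTiter-Glo 2.0 luminescence, expressed as percent of vehicle-treated cells. GI50 (nM) derived from the curves.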

The target of assay [6] is T3, CDK6 cyclin D1 (Homo sapiens, UniProt Q00534).
T3 construct: purchased Reaction Biology (USA), contract assay
Briefly: CDK6 enzyme inhibitory ability (Reaction Biology). In kind it is biochemical. Particulars: measured in Reaction Biology (USA). As to the method:
(§2) In order to evaluate the CDK4 and CDK6 enzyme inhibitory activities of the example compounds according to the present invention, IC5O (nM) was measured for the CDK4 cyclin D1 and CDK6 cyclin D1 enzymes in Reaction Biology (USA), and the results were shown in Table 3 below.

Assay [7] concerns the target CDK4-cyclinD1 (Homo sapiens, UniProt P11802). Briefly: CDK4 enzyme inhibitory ability (Reaction Biology). It counts as biochemical. The arrangement: purchased Reaction Biology (USA), contract assay. Conditions: measured in Reaction Biology (USA). As to the method: as §2

In general, GI50 refers to the concentration at which growth is held to half of that of the control. Usually pIC50 stands for −log10 of the IC50, conventionally taken in molar units. A high value points to a small IC50.

pIC50: −log10 of the molar value. A value given as a limit tells only on which side of the number the result lay.

T3 sequence (Q00534 whole entry): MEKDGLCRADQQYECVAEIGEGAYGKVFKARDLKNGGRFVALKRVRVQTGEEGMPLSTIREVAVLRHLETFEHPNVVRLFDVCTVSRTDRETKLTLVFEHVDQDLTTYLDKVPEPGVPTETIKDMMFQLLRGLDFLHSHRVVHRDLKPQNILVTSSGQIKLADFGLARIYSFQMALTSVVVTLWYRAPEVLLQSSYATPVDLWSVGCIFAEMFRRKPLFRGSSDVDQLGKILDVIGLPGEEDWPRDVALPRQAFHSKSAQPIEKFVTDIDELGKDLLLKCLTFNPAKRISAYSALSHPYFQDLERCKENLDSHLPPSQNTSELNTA
T3 sequence (P24385 whole entry partner): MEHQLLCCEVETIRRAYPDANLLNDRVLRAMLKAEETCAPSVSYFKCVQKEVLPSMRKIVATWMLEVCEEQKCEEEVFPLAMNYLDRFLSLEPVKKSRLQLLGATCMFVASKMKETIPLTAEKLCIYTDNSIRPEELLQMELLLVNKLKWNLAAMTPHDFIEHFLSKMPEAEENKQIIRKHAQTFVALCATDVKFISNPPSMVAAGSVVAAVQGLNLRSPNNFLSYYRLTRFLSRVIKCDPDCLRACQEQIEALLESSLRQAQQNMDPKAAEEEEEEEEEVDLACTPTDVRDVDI
Sequence of CDK4-cyclinD1 (P11802 whole entry): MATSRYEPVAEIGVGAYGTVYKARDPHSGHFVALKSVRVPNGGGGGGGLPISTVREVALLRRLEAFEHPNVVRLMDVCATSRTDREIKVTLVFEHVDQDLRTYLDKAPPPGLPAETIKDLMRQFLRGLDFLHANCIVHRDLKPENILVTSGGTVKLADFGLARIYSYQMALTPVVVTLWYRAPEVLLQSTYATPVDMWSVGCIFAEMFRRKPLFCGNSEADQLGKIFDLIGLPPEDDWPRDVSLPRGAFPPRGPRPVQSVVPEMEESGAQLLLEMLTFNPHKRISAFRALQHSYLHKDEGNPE
Sequence of CDK4-cyclinD1 (P24385 whole entry partner): as the sequence (P24385 whole entry partner) above

As for `CCN1CCN(c2ccc(Nc3nc(N4OCC[C@H]4c4ccccc4)c4cc[nH]c4n3)cc2)CC1` [Example 79, (S)-N-(4-(4-ethylpiperazin-1-yl)phenyl)-4-(3-phenylisoxazolidin-2-yl)-7H-pyrrolo[2,3-d]pyrimidin-2-amine], the GI50 in assay [1] is more than 500 nM; in assay [2] it was not below 250 nM; in assay [5] it was more than 500 nM. Further, the figures for the pIC50 in assay [3] and in assay [4] were not above 6.60 and 6.30 to 6.60, respectively.
As to `CN1CCN(C2CCN(c3ccc(Nc4nc(N5OCC[C@H]5c5ccccc5)c5cc[nH]c5n4)cc3)CC2)CC1` [Example 84, (S)-N-(4-(4-(4-methylpiperazin-1-yl)piperidin-1-yl)phenyl)-4-(3-phenylisoxazolidin-2-yl)-7H-pyrrolo[2,3-d]pyrimidin-2-amine], the GI50 in assay [1] was not below 250 nM; in assay [2], not below 250 nM; in assay [5] it was more than 500 nM. The pIC50 in assay [3] and in assay [4] was not above 6.60 in each case.
For `CN1CCN(c2ccc(Nc3nc(N4OCC[C@H]4c4ccccc4)c4c(Cl)c[nH]c4n3)cc2)CC1` [Example 116, (S)-5-chloro-N-(4-(4-methylpiperazin-1-yl)phenyl)-4-(3-phenylisoxazolidin-2-yl)-7H-pyrrolo[2,3-d]pyrimidin-2-amine], the GI50 in assay [2] and in assay [5] was more than 500 nM each time. Also, the pIC50 in assay [6], in assay [3], in assay [4] and in assay [7] was not above 6.60 in each case.
For the molecule `CN1CCN(c2ccc(Nc3nc(N4OCC[C@H]4c4ccccc4)c4c(C#N)c[nH]c4n3)cc2)CC1` [Example 118, (S)-2-((4-(4-methylpiperazin-1-yl)phenyl)amino)-4-(3-phenylisoxazolidin-2-yl)-7H-pyrrolo[2,3-d]pyrimidine-5-carbonitrile], the GI50 in assay [2] and in assay [5] was more than 500 nM throughout. Further, the pIC50 in assay [6], in assay [3], in assay [4] and in assay [7] was not above 6.60 each time.
Consider `CN1CCN(c2ccc(Nc3nc(N4OCC[C@H]4c4ccccc4)c4c(C(F)(F)F)c[nH]c4n3)cc2)CC1` [Example 123, (S)-N-(4-(4-methylpiperazin-1-yl)phenyl)-4-(3-phenylisoxazolidin-2-yl)-5-(trifluoromethyl)-7H-pyrrolo[2,3-d]pyrimidin-2-amine], for which the GI50 in assay [2] and in assay [5] was more than 500 nM each time. Besides, the pIC50 was not above 6.60 in assay [6], less than 6.30 in assay [3], not above 6.60 in assay [4] and not above 6.60 in assay [7].
